Consider ten molecules from patent US6495594B2, “Biologically active analogs of discodermolide” (Harbor Branch Oceanographic Institution, Inc., priority 2000, dated 2002).

Entries after “also recorded” stand apart in the source; their conditions may differ.

The test system of data set [1] is P388 murine leukemia cell lines. The experiment in a line: In vitro proliferation of P388 cells (MTT). In kind it is cell-based. The following applies: 48-h exposure; for IC50: value in parentheses. On the procedure:
Discodermolide and discodermolide analogs were analyzed as to their effects on proliferation of A549 human adenocarcinoma and P388 murine leukemia cell lines. P388 cells were obtained from Dr. R. Camalier, National Cancer Institute, Bethesda, MD, and A549 cells were obtained from American Type Culture Collection, Rockville, MD. All cell lines were maintained in tissue culture medium (TCM; Roswell Park Memorial Institute RPMI 1640 supplemented with 100 U/mL penicillin, […], 60 […], 18 mM HEPES, 0.05 mg/mL gentamicin (Life Technologies, Gaithersburg, MD) and 10% fetal bovine serum) and cultured in plastic tissue culture flasks at 37° C. in humidified air containing 5% CO2. Stock cultures of P388 cells were subcultured 1:20 in fresh TCM every 2 to 3 days. Stock cultures of A549 cells were subcultured 1:10 every 3 to 4 days. To assess the antiproliferative effects of agents against the cells, 200 μL cultures (96-well tissue culture plates, Nunc, Denmark) were established at 1 ×10^5 cells/mL in TCM or TCM containing the test agent at 0.03-5.0 μg/mL. After 48-h exposures, P388 cells were enumerated using 3-[4,5-dimethylthiazol-2-yl]-2,5-diphenyltetrazolium bromide (MTT) as described in the literature (M. C. Alley, et al., Cancer Res. 48:589, 1988). A549 cells were enumerated in the same manner after 72 hours exposure. The results were expressed as percent inhibition compared to the negative (no drug) control. Positive drug controls of varying dilutions of 5-fluorouracil and adriamycin (Sigma Chemical Co., St Louis, MO) were included to monitor drug sensitivity of the cell line.
To quantitate the effects on cell proliferation and resulting IC50 values, 75 μL of warm growth media containing 5 mg/mL MTT is added to each well, cultures returned to the incubator, and left undisturbed for 3 hours. To spectrophotometrically quantitate formation of reduced formazan, plates are centrifuged (500×g, 10 minutes), culture fluids removed by aspiration, and 200 μL of acidified isopropanol (2 mL concentrated HCl /liter isopropanol) added per well. The absorbance of the resulting solutions is measured in a plate reader (TECAN Spectra SLT; TECAN U.S., Research Triangle Park, N.C.) at 570 nm and a 650 nm reference filter. The absorbance of test wells is divided by the absorbance of drug-free wells, and the concentration of agent that results in 50% of the absorbance of untreated cultures (IC50) is determined by linear regression of logit-transformed data (D. J. Finney, Statistical Method in Biological Assay, third ed., pp. 316-348, Charles Griffin Co., London, 1978). A linear relationship between tumor cell number and formazan production has been routinely observed over the range of cell densities observed in these experiments. The two standard drug controls (indicated above) are included in each assay as a check to monitor the drug sensitivity of each of the cell lines and IC50 values are determined for each drug-cell combination.

In the next data set the test system is A549 human lung cells. The experiment in a line: Cell cycle progression by flow cytometry. Format: cell-based. Conditions: for Cell cycle effects (100 nM): 24 hr, A549. On the procedure:
Cell cycle studies were initiated in order to pinpoint a specific phase within the cell cycle in which discodermolide analogs were exerting their antiproliferative effect. A549 human lung cells were used as cell cycle targets to compare the effects of discodermolide and discodermolide analogs on perturbation of the cell cycle. Cell cycle analyses were performed as follows: A549 cells were incubated at 37° C. in 5% CO2 in air in the presence or absence of varying concentrations of discodermolide or discodermolide analogs for 24 hr. Cells were harvested, fixed in ethanol, washed, and stained with 0.02 mg/mL of propidium iodide (P.I.) together with 0.1 mg/mL of RNAse A. Stained preparations were analyzed on a Coulter EPICS ELITE flow cytometer with 488 nm excitation. Fluorescence measurements and resulting DNA histograms were collected from at least 10,000 P.I. stained cells at an emission wavelength of 690 nm. Raw histogram data was further analyzed using a cell cycle analysis program (Multicycle, Phoenix Flow Systems).

For data set [2], the system named is A549 human adenocarcinoma tumor cells. The experiment in a line: Microtubule bundling patterns in tumor cells by immunofluorescence. Conditions: for Microtubule bundling in A549 cells: subjective rating versus discodermolide, Table 12. Format: cell-based. Further details: key to Microtubule bundling in A549 cells: −: no effect; +/−: minimal or questionable effect; +: weak effect; ++: strong effect; +++: very strong effect equivalent to discodermolide. How it is done:
Discodermolide and discodermolide analogs were evaluated as to their effects on the morphology of the microtubule network of cells using mouse anti-alpha-tubulin monoclonal antibody.
On day one, 7×10^4 adherent A549 human adenocarcinoma tumor cells were cultured in TCM overnight at 37° C. in 5% CO2 on 22 mm^2 cover slips in 6-well microtiter plates. On day two, TCM was removed and replaced with 10-1000 nM discodermolide or analog in TCM or TCM without drug (control) and incubated overnight at 37° C. in 5% CO2. On day three, TCM was removed and cells attached to cover slips were fixed with a 3.7% formaldehyde solution in Dulbecco's PBS for 10 minutes at room temperature. Cells were permeabilized with a 2% Triton X-100 solution, 2 mL per well, for 5 minutes at room temperature and washed twice in Dulbecco's PBS prior to staining.
To each well containing cells attached to cover slips a 2 mL volume of mouse anti- alpha-tubulin monoclonal antibody (Cat# T-5168, Sigma Chemical Co., St. Louis, Mo.) diluted 1:1000 in Dulbecco's phosphate buffered saline (D-PBS) was added and the cells incubated at room temperature for 45 minutes. Cover slips were rinsed once with D-PBS. A 2 mL volume of goat-anti-mouse-IgG-FITC conjugated antibody (Cat# T-5262, Sigma Chemical Co., St. Louis, Mo.) diluted 1:1000 in D-PBS was added and the cells incubated at room temperature for 45 minutes. Cover slips were rinsed once in D-PBS and DNA was stained with 0.02 mg/mL propidium iodide together with 0.1 mg/mL of ribonuclease A (RNAse) A in D-PBS at 37° C. for 30 minutes. Cover slips were rinsed three times with sterile distilled water, air-dried and mounted on slides with SlowFade™ antifade solution (Molecular Probes, Eugene, Oreg.) and observed under the microscope using epifluorescence illumination for the presence of abnormal aster and microtubule bundle formations.

For data set [3] the following is noted: see U.S. Pat. No. 6,127,406; cited from earlier work.

The term IC50 denotes the midpoint of a concentration-inhibition curve. Consider `CCCCC(C)C(OC(N)=O)C(C)C(OC(C)=O)C(C)CC(C)=CC(C)C(OC(C)=O)C(C)CCCCC1OC(=O)C(C)C(OC(C)=O)C1C` (stereo not shown) [7-deoxy-8,21,23-hexahydrodiscodermolide-3,11,17-triacetate], for which, in data set [1], the “IC50 P388 cells” value was above 5 µg/mL and the IC50 is above 7.5 µM. In the data set with A549 human lung cells (10 nM), the Cell cycle effects result is “No cell cycle effects were noted”. In addition, in the data set with A549 human lung cells, the “Cell cycle effects (100 nM)” value was “No cell cycle effects were noted”. Moreover, the Cell cycle effects entry in the data set on A549 human lung cells (1000 nM) is “No cell cycle effects were noted”. For the same molecule, the Microtubule bundling observation result in data set [2] (10 nM through 1000 nM) was “no bundling seen”. In data set [2], the “Microtubule bundling in A549 cells” value is “−”.
Regarding `C=CC=CC(C)C(OC(N)=O)C(C)C(O)C(C)CC(C)=CC(C)C(OC(C)=O)C(C)C=CC(CC1OC(=O)C(C)C(OC(C)=O)C1C)OC(C)=O` (stereo not shown) [discodermolide-3,7,11-triacetate], the “Cytotoxicity compared to the parent molecule” value in data set [3] is “reduced cytotoxicity”.
Regarding `C=CC=CC(C)C(OC(N)=O)C(C)C(OC(C)=O)C(C)CC(C)=CC(C)C(OC(C)=O)C(C)C=CC(CC1OC(=O)C(C)C(OC(C)=O)C1C)OC(C)=O` (stereo not shown) [discodermolide-3,7,11,17-tetraacetate], the “Cytotoxicity compared to the parent molecule” value in data set [3] is “dramatic reduction in the activity”.
For `C=CC=CC(C)C(OC(N)=O)C(C)C(O)C(C)CC(C)=CC(C)C(O)C(C)C=CC(CC1OC(=O)C(C)C(OC(C)=O)C1C)OC(C)=O` (stereo not shown) [discodermolide-3,7-diacetate], the “Cytotoxicity compared to the parent molecule” value in data set [3] is “greater cytotoxicity”.
In the case of `C=CC=CC(C)C(OC(N)=O)C(C)C(O)C(C)CC(C)=CC(C)C(O)C(C)C=CC(CC1OC(=O)C(C)C(O)C1C)OC(C)=O` (stereo not shown) [discodermolide-7-acetate], the “Cytotoxicity compared to the parent molecule” value in data set [3] was “greater cytotoxicity”.
For the molecule `C=CC=CC(C)C(OC(N)=O)C(C)C(O)C(C)CC(C)=CC(C)C(OC(C)=O)C(C)C=CC(O)CC1OC(=O)C(C)C(OC(C)=O)C1C` (stereo not shown) [discodermolide-3,11-diacetate], the “Cytotoxicity compared to the parent molecule” value in data set [3] is given as “reduced cytotoxicity”.
Turning to `C=CC=CC(C)C(OC(N)=O)C(C)C(O)C(C)CC(C)=CC(C)C(O)C(C)C=CC(O)CC1OC(=O)C(C)C(OC(C)=O)C1C` (stereo not shown) [discodermolide-3-acetate], the “Cytotoxicity compared to the parent molecule” value in data set [3] is recorded as “greater cytotoxicity”.
As to `C=CC=CC(C)C(OC(N)=O)C(C)C(OC(C)=O)C(C)CC(C)=CC(C)C(O)C(C)C=CC(O)CC1OC(=O)C(C)C(OC(C)=O)C1C` (stereo not shown) [discodermolide-3,17-diacetate], in data set [3], the “Cytotoxicity compared to the parent molecule” value is listed as “dramatic reduction in the activity”.
In the case of `C=CC=CC(C)C(OC(N)=O)C(C)C(OC(C)=O)C(C)CC(C)=CC(C)C(O)C(C)C=CC(CC1OC(=O)C(C)C(OC(C)=O)C1C)OC(C)=O` (stereo not shown) [discodermolide-3,7,17-triacetate], the “Cytotoxicity compared to the parent molecule” value in data set [3] is given as “dramatic reduction in the activity”.
`C=CC=CC(C)C(OC(N)=O)C(C)C(O)C(C)CC(C)=CC(C)C(O)C(C)C=CC(CC1OC(=O)C(C)=CC1C)OC(=O)CCC(=O)O` (stereo not shown) [3-deoxy-2Δ-discodermolide-7-succinate]: the “IC50 P388 cells” value in data set [1] was above 5 µg/mL. Further, the concentration for half-maximal inhibition (IC50) in data set [1] was above 7.41 µM. For the same molecule, the Cell cycle effects result with A549 human lung cells (10 nM) was “indistinguishable from the untreated (control) cells”; in the data set with A549 human lung cells (1000 nM) it was “indistinguishable from the untreated (control) cells”; in the data set with A549 human lung cells (3000 nM (highest concentration tested)), “no cell cycle effects were noted; also recorded: slight induction of apoptosis and a general necrosis”. The “Cell cycle effects (100 nM)” value in the data set on A549 human lung cells is given as “indistinguishable from the untreated (control) cells”. In addition, the Microtubule bundling observation entry in data set [2] (10 nM) is listed as “indistinguishable from that of the untreated (control) cells”; in data set [2] (100 nM), “indistinguishable from that of the untreated (control) cells”; in data set [2] (1000 nM) it was “no bundling”. In addition, the “Microtubule bundling in A549 cells” value in data set [2] is “−”.
